Measurements published in patent US11382956B2, “Amylin analogues” (Zealand Pharma A/S, priority 2016, dated 2022).
Numbered stars: 1 amine (or outer) side, 2 acyl side, 3 side chain; on linkers, the order of the positions; unused ones are H or OH. Bridge positions count the residues as written; N and C are the ends. Square brackets hold non-standard residues; d marks the D form. Peptide text beside a SMILES is read from it. * marks the point of attachment. C20 diacid = O=C(O)CCCCCCCCCCCCCCCCCCC(=O)*; γGlu = O=C(O)[C@H](CCC(=O)[*:2])N[*:1]; Hyp = O=C(O)[C@@H]1C[C@@H](O)CN1; NMeI = CC[C@H](C)[C@H](NC)C(=O)O; Aad = N[C@@H](CCCC(=O)O)C(=O)O; Orn = NCCC[C@H](N)C(=O)O; Dab = NCC[C@H](N)C(=O)O; Sar = CNCC(=O)O

How the values were obtained:
[1] = molecular target: T1, recombinant human calcitonin receptor (hCT-R) (Homo sapiens, UniProt P30988); assay: hCT-R cAMP assay (AlphaScreen) in 1321N1 cells; type: cell-based; conditions: cAMP formation, 45 min stimulation
T1 construct: host or cells: human astrocytoma cell line 1321N1
T1 sequence (P30988 25-474): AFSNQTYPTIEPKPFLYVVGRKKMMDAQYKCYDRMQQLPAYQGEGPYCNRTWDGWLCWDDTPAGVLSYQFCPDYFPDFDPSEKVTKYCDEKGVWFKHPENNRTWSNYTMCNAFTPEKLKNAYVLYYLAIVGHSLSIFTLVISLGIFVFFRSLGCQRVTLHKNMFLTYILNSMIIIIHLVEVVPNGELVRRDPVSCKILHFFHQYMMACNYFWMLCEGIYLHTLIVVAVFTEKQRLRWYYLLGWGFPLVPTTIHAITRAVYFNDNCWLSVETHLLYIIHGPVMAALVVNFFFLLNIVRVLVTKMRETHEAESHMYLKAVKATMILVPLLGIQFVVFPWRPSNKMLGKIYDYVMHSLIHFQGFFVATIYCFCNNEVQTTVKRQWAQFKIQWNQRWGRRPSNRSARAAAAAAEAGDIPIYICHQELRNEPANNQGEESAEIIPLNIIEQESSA
From the text: (§1) For the assessment of the in vitro activity of test peptides, cell lines expressing recombinant human calcitonin receptor (hCT-R) or recombinant human amylin 3 receptor (hAMYR3) in the background of the human astrocytoma cell line 1321N1 were purchased from DiscoveRx Corporation (Cat. No. 95-016106 and 95-0166C6). The hAMYR3 is a hetero-oligomer of the calcitonin receptor (Isoform 2; Gene ID 799) and RAMPS (Gene ID 10268) that forms when both genes are expressed in the same cell. The hCT-R cell line expresses only the recombinant human calcitonin receptor gene (Isoform 2; Gene ID 799). Upon activation of hCT-R or hAMYR3 by the test peptides the formation of cAMP is induced and was measured using the AlphaScreen® cAMP Assay kit from Perkin-Elmer (Cat. No. 6760635R).
(§2) Briefly, 1321N1 cells expressing hCT-R or hAMYR3 were seeded in 384-well microtiter plates (Falcon Optilux White, Cat.-No. 10448642) at 5,000 cells in […] growth medium per well (AssayComplete 1321N1 Cell Culture Kit, DiscoveRx Corp.), and incubated for 24 h at 37° C., 5% CO2. On the day of analysis growth medium was removed and the cells were stimulated by adding 10 μL of stimulation buffer (10 […], 0.1% BSA) containing increasing concentrations of test peptides, and incubation for 45 min at room temperature. The stimulation was stopped by adding 5.6 μL/well donor bead detection mix (5 mM Hepes pH7.4, 0.5% TWEEN 20, 0.1% BSA, 0.05 mg/mL donor beads, 62.5 nM biotinylated cAMP) and 4.5 μL/well acceptor bead solution (5 mM Hepes pH7.4, 0.5% TWEEN 20, 0.1% BSA, 0.05 mg/mL acceptor beads). After thorough mixing the plates were incubated in the dark for 1 h at room temperature and the cAMP content of the resulting cell lysates was estimated according to the AlphaScreen® cAMP Assay manufacturer's instructions. EC50 values were estimated by computer-aided curve fitting of results of at least 7 different compound concentrations.

[2] = molecular target: T2, recombinant human amylin 3 receptor (hAMYR3) (Homo sapiens, UniProt O60896+P30988); assay: hAMYR3 cAMP assay (AlphaScreen) in 1321N1 cells; type: cell-based; conditions: cAMP formation, 45 min stimulation
T2 construct: host or cells: human astrocytoma cell line 1321N1
T2 sequence (P30988 25-474): T1 sequence (P30988 25-474)
T2 sequence (O60896 24-148 partner): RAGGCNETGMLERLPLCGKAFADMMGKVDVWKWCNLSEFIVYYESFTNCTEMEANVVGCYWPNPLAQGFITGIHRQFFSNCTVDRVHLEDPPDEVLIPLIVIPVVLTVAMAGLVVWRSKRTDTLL
From the text: as §1, §2

Row | SMILES | EC50 [1] [nM] | EC50 [2] [nM]
1 | CC[C@H](C)[C@@H](C(=O)N[C@@H](CC(C)C)C(=O)N[C@@H](CO)C(=O)N[C@@H](CO)C(=O)N[C@H](C(=O)N[C@@H](CCC(=O)O)C(=O)N[C@H](C(=O)NCC(=O)N[C@@H](CO)C(=O)N[C@@H](CC(N)=O)C(=O)N[C@H](C(=O)N1C[C@H](O)C[C@H]1C(N)=O)[C@@H](C)O)C(C)C)[C@@H](C)O)N(C)C(=O)[C@H](C)NC(=O)CN(C)C(=O)[C@H](Cc1ccccc1)NC(=O)[C@H](CCCNC(=N)N)NC(=O)[C@H](CCC(N)=O)NC(=O)[C@H](CC(C)C)NC(=O)[C@H](Cc1ccccc1)NC(=O)[C@H](Cc1c[nH]cn1)NC(=O)[C@H](C)NC(=O)[C@H](CC(C)C)NC(=O)[C@H](CCCNC(=N)N)NC(=O)[C@H](CCC(=O)O)NC(=O)[C@@H](NC(=O)[C@H](C)NC(=O)[C@@H]1CCCNC(=O)C[C@H](NC(=O)[C@H](CCCNC(=N)N)NC(=O)CC[C@H](NC(=O)CCCCCCCCCCCCCCCCCCC(=O)O)C(=O)O)C(=O)NCC(=O)N[C@@H]([C@@H](C)O)C(=O)N[C@@H](C)C(=O)N[C@@H]([C@@H](C)O)C(=O)N1)[C@@H](C)O [Compound 6, [19CD]-isoGlu-RD()GTAT-Orn()-ATERLAHFLQRF-Gly(Me)-A-Ile(Me)-LSSTEVGSNT-Hyp-NH2] ({C20 diacid-γGlu}-RDGTAT[Orn]ATERLAHFLQRF[Sar]A[NMeI]LSSTEVGSNT[Hyp]-NH2; lactam 2-7) | 0.327 | 0.011
2 | CC[C@H](C)[C@@H](C(=O)N[C@@H](CC(C)C)C(=O)N[C@@H](CO)C(=O)N[C@@H](CO)C(=O)N[C@H](C(=O)N[C@@H](CCC(=O)O)C(=O)N[C@H](C(=O)NCC(=O)N[C@@H](CO)C(=O)N[C@@H](CC(N)=O)C(=O)N[C@H](C(=O)N1C[C@H](O)C[C@H]1C(N)=O)[C@@H](C)O)C(C)C)[C@@H](C)O)N(C)C(=O)[C@H](C)NC(=O)CN(C)C(=O)[C@H](Cc1ccccc1)NC(=O)[C@H](CO)NC(=O)[C@H](CO)NC(=O)[C@H](CCCNC(=N)N)NC(=O)[C@H](CCC(N)=O)NC(=O)[C@H](CC(C)C)NC(=O)[C@H](Cc1ccccc1)NC(=O)[C@H](Cc1c[nH]cn1)NC(=O)[C@H](C)NC(=O)[C@H](CC(C)C)NC(=O)[C@H](CCCNC(=N)N)NC(=O)[C@H](CCC(=O)O)NC(=O)[C@@H](NC(=O)[C@H](C)NC(=O)[C@@H]1CCNC(=O)C[C@H](NC(=O)[C@H](CCCNC(=N)N)NC(=O)CC[C@H](NC(=O)CCCCCCCCCCCCCCCCCCC(=O)O)C(=O)O)C(=O)NCC(=O)N[C@@H]([C@@H](C)O)C(=O)N[C@@H](C)C(=O)N[C@@H]([C@@H](C)O)C(=O)N1)[C@@H](C)O [Compound 2, [19CD]-isoGlu-RD()GTAT-Dab()-ATERLAHFLQRSSF-Gly(Me)-A-Ile(Me)-LSSTEVGSNT-Hyp-NH2] ({C20 diacid-γGlu}-RDGTAT[Dab]ATERLAHFLQRSSF[Sar]A[NMeI]LSSTEVGSNT[Hyp]-NH2; lactam 2-7) | 0.105 | 0.032

Continued by falling EC50 [1], values first:

Row | EC50 [1] [nM] | EC50 [2] [nM] | SMILES
3 | 20.3 | 17.1 | CC[C@H](C)[C@@H](C(=O)N1CCC[C@H]1C(=O)N[C@@H](CO)C(=O)N[C@@H](CO)C(=O)N[C@H](C(=O)N[C@@H](CCC(=O)O)C(=O)N[C@H](C(=O)NCC(=O)N[C@@H](CO)C(=O)N[C@@H](CC(N)=O)C(=O)N[C@H](C(=O)N1C[C@H](O)C[C@H]1C(N)=O)[C@@H](C)O)C(C)C)[C@@H](C)O)N(C)C(=O)[C@H](C)NC(=O)CN(C)C(=O)[C@H](Cc1ccccc1)NC(=O)[C@H](CO)NC(=O)[C@H](CO)NC(=O)[C@H](CCCNC(=N)N)NC(=O)[C@H](CCC(N)=O)NC(=O)[C@H](CC(C)C)NC(=O)[C@H](Cc1ccccc1)NC(=O)[C@H](Cc1c[nH]cn1)NC(=O)[C@H](C)NC(=O)[C@H](CC(C)C)NC(=O)[C@H](CCCNC(=N)N)NC(=O)[C@H](CCC(=O)O)NC(=O)[C@@H](NC(=O)[C@H](C)NC(=O)[C@H](CCCN)NC(=O)[C@@H](NC(=O)[C@H](C)NC(=O)[C@@H](NC(=O)CNC(=O)[C@H](CC(=O)O)NC(=O)[C@H](CCCNC(=N)N)NC(=O)CC[C@H](NC(=O)CCCCCCCCCCCCCCCCCCC(=O)O)C(=O)O)[C@@H](C)O)[C@@H](C)O)[C@@H](C)O [Ref. 1, [19CD]-isoGlu-RDGTAT-Orn-ATERLAHFLQRSSF-Sar-A-Ile(Me)-PSSTEVGSNT-Hyp-NH2, reference compound] ({C20 diacid-γGlu}-RDGTAT[Orn]ATERLAHFLQRSSF[Sar]A[NMeI]PSSTEVGSNT[Hyp]-NH2)
4 | 0.474 | 0.051 | CC[C@H](C)[C@@H](C(=O)N[C@@H](CC(C)C)C(=O)N[C@@H](CO)C(=O)N[C@@H](CO)C(=O)N[C@H](C(=O)N[C@@H](CCC(=O)O)C(=O)N[C@H](C(=O)NCC(=O)N[C@@H](CO)C(=O)N[C@@H](CO)C(=O)N[C@H](C(=O)N1C[C@H](O)C[C@H]1C(N)=O)[C@@H](C)O)C(C)C)[C@@H](C)O)N(C)C(=O)[C@H](C)NC(=O)CN(C)C(=O)[C@H](Cc1ccccc1)NC(=O)[C@H](CO)NC(=O)[C@H](CO)NC(=O)[C@H](CCCNC(=N)N)NC(=O)[C@@H](NC(=O)[C@H](CC(C)C)NC(=O)[C@H](Cc1ccccc1)NC(=O)[C@H](CCCC(=O)O)NC(=O)[C@H](C)NC(=O)[C@H](CC(C)C)NC(=O)[C@H](CCCNC(=N)N)NC(=O)[C@H](CCC(=O)O)NC(=O)[C@@H](NC(=O)[C@H](C)NC(=O)[C@@H]1CCCNC(=O)C[C@H](NC(=O)[C@H](CCCNC(=N)N)NC(=O)CC[C@H](NC(=O)CCCCCCCCCCCCCCCCCCC(=O)O)C(=O)O)C(=O)NCC(=O)N[C@@H]([C@@H](C)O)C(=O)N[C@@H](C)C(=O)N[C@@H]([C@@H](C)O)C(=O)N1)[C@@H](C)O)[C@@H](C)O [Compound 22, [19CD]-isoGlu-RD()GTAT-Orn()-ATERLA-Aad-FLTRSSF-Gly(Me)-A-Ile(Me)-LSSTEVGSST-Hyp-NH2] ({C20 diacid-γGlu}-RDGTAT[Orn]ATERLA[Aad]FLTRSSF[Sar]A[NMeI]LSSTEVGSST[Hyp]-NH2; lactam 2-7)
5 | 0.038 | 0.013 | CC[C@H](C)[C@@H](C(=O)N1CCC[C@H]1C(=O)N[C@@H](CO)C(=O)N[C@@H](CO)C(=O)N[C@H](C(=O)N[C@@H](CCC(=O)O)C(=O)N[C@H](C(=O)NCC(=O)N[C@@H](CO)C(=O)N[C@@H](CC(N)=O)C(=O)N[C@H](C(=O)N1C[C@H](O)C[C@H]1C(N)=O)[C@@H](C)O)C(C)C)[C@@H](C)O)N(C)C(=O)[C@H](C)NC(=O)CN(C)C(=O)[C@H](Cc1ccccc1)NC(=O)[C@@H](NC(=O)[C@@H](NC(=O)[C@H](CCCNC(=N)N)NC(=O)[C@H](CCC(N)=O)NC(=O)[C@H](CC(C)C)NC(=O)[C@H](Cc1ccccc1)NC(=O)[C@H](CCCC(=O)O)NC(=O)[C@H](C)NC(=O)[C@H](CC(C)C)NC(=O)[C@H](CCCNC(=N)N)NC(=O)[C@H](CCC(=O)O)NC(=O)[C@@H](NC(=O)[C@H](C)NC(=O)[C@@H]1CCCNC(=O)C[C@H](NC(=O)[C@H](CCCNC(=N)N)NC(=O)CC[C@H](NC(=O)CCCCCCCCCCCCCCCCCCC(=O)O)C(=O)O)C(=O)NCC(=O)N[C@@H]([C@@H](C)O)C(=O)N[C@@H](C)C(=O)N[C@@H]([C@@H](C)O)C(=O)N1)[C@@H](C)O)[C@@H](C)O)[C@@H](C)O [Compound 24, [19CD]-isoGlu-RD()GTAT-Orn()-ATERLA-Aad-FLQRTTF-Gly(Me)-A-Ile(Me)-PSSTEVGSNT-Hyp-NH2] ({C20 diacid-γGlu}-RDGTAT[Orn]ATERLA[Aad]FLQRTTF[Sar]A[NMeI]PSSTEVGSNT[Hyp]-NH2; lactam 2-7)
